Where “and” joins values, the source holds several entries; their conditions need not be identical. Identical values can stand only once. Inconclusive results and toxic doses are left out.
System: P388 leukemia ip, CD2F1 mice, survival T/C
Assay: NCI In Vivo Anticancer Drug Screen. Data for tumor model P388 Leukemia (intraperitoneal) in CD2F1 (CDF1) mice
Conditions: endpoint: median survival time, higher = longer survival
Procedure, shortened: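 Mice carrying the transplanted tumor received test compound or vehicle. Survival was recorded in each group, and the value is the treated-group measurement divided by that of the vehicle-treated control group.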

[1] = dose: 100.0 mg/kg/injection, schedule: Q01DX001 (ip), vehicle: saline with Tween-80
[2] = dose: 200.0 mg/kg/injection, schedule: Q01DX001 (ip), vehicle: saline with Tween-80
[3] = dose: 400.0 mg/kg/injection, schedule: Q01DX001 (ip), vehicle: saline with Tween-80
[4] = dose: 60.0 mg/kg/injection, schedule: Q01DX005 (ip), vehicle: saline with Tween-80
[5] = dose: 120.0 mg/kg/injection, schedule: Q01DX005 (ip), vehicle: saline with Tween-80
[6] = dose: 240.0 mg/kg/injection, schedule: Q01DX005 (ip), vehicle: saline with Tween-80
[7] = dose: 60.0 mg/kg/injection, schedule: Q01DX005 (ip), vehicle: Klucel (hydroxypropylcellulose) (HPC)
[8] = dose: 120.0 mg/kg/injection, schedule: Q01DX005 (ip), vehicle: Klucel (hydroxypropylcellulose) (HPC)
[9] = dose: 240.0 mg/kg/injection, schedule: Q01DX005 (ip), vehicle: Klucel (hydroxypropylcellulose) (HPC)
[10] = dose: 50.0 mg/kg/injection, schedule: Q01DX009 (ip), vehicle: Klucel (hydroxypropylcellulose) (HPC)
[11] = dose: 100.0 mg/kg/injection, schedule: Q01DX009 (ip), vehicle: Klucel (hydroxypropylcellulose) (HPC)
[12] = dose: 50.0 mg/kg/injection, schedule: Q01DX005 (ip), vehicle: saline with Tween-80
[13] = dose: 50.0 mg/kg/injection, schedule: Q01DX005 (ip), vehicle: Klucel (hydroxypropylcellulose) (HPC)
[14] = dose: 100.0 mg/kg/injection, schedule: Q01DX005 (ip), vehicle: Klucel (hydroxypropylcellulose) (HPC)
[15] = dose: 100.0 mg/kg/injection, schedule: Q04DX003 (ip), vehicle: saline with Tween-80
[16] = dose: 200.0 mg/kg/injection, schedule: Q04DX003 (ip), vehicle: saline with Tween-80
[17] = dose: 400.0 mg/kg/injection, schedule: Q04DX003 (ip), vehicle: saline with Tween-80

For `NC(CSCCCSCC(N)C(=O)O)C(=O)O` (stereo not given), the T/C (dose: 25.0 mg/kg/injection, schedule: Q01DX001 (ip), vehicle: Klucel (hydroxypropylcellulose) (HPC)) was 97 % of control, the T/C (dose: 50.0 mg/kg/injection, schedule: Q01DX001 (ip), vehicle: Klucel (hydroxypropylcellulose) (HPC)) was 97 % of control and the T/C (dose: 100.0 mg/kg/injection, schedule: Q01DX001 (ip), vehicle: Klucel (hydroxypropylcellulose) (HPC)) was 96 % of control and 97 % of control. For the same molecule, the T/C (dose: 200.0 mg/kg/injection, schedule: Q01DX001 (ip), vehicle: Klucel (hydroxypropylcellulose) (HPC)) was 104 % of control.
`CN(C)CCN1C(=O)c2cccc3cc(N)cc(c23)C1=O` was tested, and the T/C (dose: 2.0 mg/kg/injection, schedule: Q01DX009 (ip), vehicle: saline with Tween-80) was 111 % of control and the T/C (dose: 8.0 mg/kg/injection, schedule: Q01DX009 (ip), vehicle: saline with Tween-80) was 176 % of control.
With `N#C/C=C/c1cccc([N+](=O)[O-])c1` the T/C [1] was 100 % of control, the T/C [2] was 100 % of control and the T/C [3] was 100 % of control.
With `O=C(O)C#Cc1cccnc1` the T/C [4] was 106 % of control, the T/C [5] was 98 % of control and the T/C [6] was 91 % of control.
`c1ccc(OCCNCCOc2ccccc2)cc1` was tested, and the T/C [7] was 104 % of control, the T/C [8] was 98 % of control and the T/C [9] was 103 % of control.
In the case of `O=C(Cc1nc2cc(Cl)c(Cl)cc2nc1CC(=O)c1ccccc1)c1ccccc1`, the T/C [4] is reported as 102 % of control, the T/C [5] is reported as 94 % of control and the T/C [6] is reported as 96 % of control.
`FC(F)(F)COP1(OCC(F)(F)F)(OCC(F)(F)F)SC(C(F)(F)F)=C(C(F)(F)F)S1` was tested, and the T/C (dose: 50.0 mg/kg/injection, schedule: Q04DX002 (ip), vehicle: saline) was 102 % of control and 103 % of control, the T/C (dose: 100.0 mg/kg/injection, schedule: Q04DX002 (ip), vehicle: saline) was 99 % of control and 100 % of control (2×) and the T/C (dose: 200.0 mg/kg/injection, schedule: Q04DX002 (ip), vehicle: saline) was 100 % of control and 107 % of control. The T/C (dose: 400.0 mg/kg/injection, schedule: Q04DX002 (ip), vehicle: saline) was 102 % of control and 107 % of control.
`C1CSCCSCCSCCSCCSCCS1` was tested, and the T/C [10] was 96 % of control, the T/C [11] was 102 % of control and the T/C (dose: 200.0 mg/kg/injection, schedule: Q01DX009 (ip), vehicle: Klucel (hydroxypropylcellulose) (HPC)) was 96 % of control.
With `Clc1ccc(-c2nnc(-c3cccc(Cl)n3)o2)c(Cl)c1` the T/C (dose: 43.8 mg/kg/injection, schedule: Q01DX005 (ip), vehicle: saline with Tween-80) was 99 % of control and the T/C (dose: 87.5 mg/kg/injection, schedule: Q01DX005 (ip), vehicle: saline with Tween-80) was 87 % of control.
In the case of `CCCNCCNc1ccc(NCCNCCC)c2c1C(=O)c1ccccc1C2=O`, the T/C (dose: 4.0 mg/kg/injection, schedule: Q01DX009 (ip), vehicle: acid diluted with saline) is reported as 104 % of control, the T/C (dose: 8.0 mg/kg/injection, schedule: Q01DX009 (ip), vehicle: acid diluted with saline) is reported as 112 % of control and the T/C (dose: 12.5 mg/kg/injection, schedule: Q01DX009 (ip), vehicle: distilled water + Tween-80) is reported as 120 % of control. The T/C (dose: 16.0 mg/kg/injection, schedule: Q01DX009 (ip), vehicle: acid diluted with saline) was 120 % of control, the T/C (dose: 25.0 mg/kg/injection, schedule: Q01DX009 (ip), vehicle: distilled water + Tween-80) was 118 % of control and the T/C (dose: 32.0 mg/kg/injection, schedule: Q01DX009 (ip), vehicle: acid diluted with saline) was 112 % of control. The T/C (dose: 100.0 mg/kg/injection, schedule: Q01DX009 (ip), vehicle: distilled water + Tween-80) was 124 % of control.
`c1ccc(NN=Nc2ncnc3nc[nH]c23)cc1` was tested, and the T/C (dose: 12.5 mg/kg/injection, schedule: Q01DX005 (ip), vehicle: saline with Tween-80) was 106 % of control, the T/C (dose: 25.0 mg/kg/injection, schedule: Q01DX005 (ip), vehicle: saline with Tween-80) was 111 % of control and the T/C [12] was 102 % of control and 115 % of control.
With `COC(=O)Nc1cn2nc(N)sc2n1` the T/C [1] was 102 % of control, the T/C [2] was 101 % of control and the T/C [3] was 99 % of control.
For `COc1ccc2c3c1OC1C(OC)(OC)C=CC4(Cl)[C@@H](C2)N(C)CC[C@]314` (stereo not given in full), the T/C [7] was 96 % of control, the T/C [8] was 96 % of control and the T/C [9] was 102 % of control.
`Nc1ncnc2ccccc12` was tested, and the T/C (dose: 12.5 mg/kg/injection, schedule: Q01DX009 (ip), vehicle: Klucel (hydroxypropylcellulose) (HPC)) was 107 % of control, the T/C (dose: 25.0 mg/kg/injection, schedule: Q01DX009 (ip), vehicle: Klucel (hydroxypropylcellulose) (HPC)) was 89 % of control and the T/C [10] was 108 % of control and 89 % of control. The T/C [11] was 108 % of control.
In the case of `COc1cc2c(c(OC)c1OC)-c1ccc(SC)c(=O)cc1[C@@H](NC(=O)Oc1ccccc1)CC2`, the T/C (dose: 5.0 mg/kg/injection, schedule: Q01DX009 (ip), vehicle: Klucel (hydroxypropylcellulose) (HPC)) is reported as 164 % of control.
With `CC(C)(C)N1COC2CCCC21` (stereo not given) the T/C (dose: 12.5 mg/kg/injection, schedule: Q01DX005 (ip), vehicle: saline) was 108 % of control and the T/C (dose: 25.0 mg/kg/injection, schedule: Q01DX005 (ip), vehicle: saline) was 100 % of control.
With `COC1=CC(=O)c2ncc(Cl)cc2C1=O` the T/C (dose: 30.0 mg/kg/injection, schedule: Q01DX005 (ip), vehicle: saline with Tween-80) was 111 % of control and the T/C [4] was 100 % of control and 93 % of control.
`O=C1Oc2ccccc2C(=O)C1=Ic1ccccc1` was tested, and the T/C [13] was 88 % of control, the T/C [14] was 94 % of control and the T/C (dose: 200.0 mg/kg/injection, schedule: Q01DX005 (ip), vehicle: Klucel (hydroxypropylcellulose) (HPC)) was 95 % of control.
For `O=S(=O)(O)Oc1c(S(=O)(=O)O)c(S(=O)(=O)O)c(O)c(S(=O)(=O)O)c1S(=O)(=O)O`, the T/C (dose: 25.0 mg/kg/injection, schedule: Q01DX001 (ip), vehicle: saline) was 111 % of control, the T/C (dose: 50.0 mg/kg/injection, schedule: Q01DX001 (ip), vehicle: saline) was 113 % of control and the T/C [1] was 103 % of control. The T/C (dose: 100.0 mg/kg/injection, schedule: Q01DX001 (ip), vehicle: saline) was 94 % of control.
For `CC(CCc1ccccc1)NC(C)C(O)c1ccc(O)cc1` (stereo not given), the T/C (dose: 25.0 mg/kg/injection, schedule: Q01DX009 (ip), vehicle: saline with Tween-80) was 100 % of control, the T/C (dose: 50.0 mg/kg/injection, schedule: Q01DX009 (ip), vehicle: saline with Tween-80) was 100 % of control and the T/C (dose: 100.0 mg/kg/injection, schedule: Q01DX009 (ip), vehicle: saline with Tween-80) was 90 % of control.
In the case of `O=C1C(Cl)=C(Nc2ccc3c(c2NC2=C(Cl)C(=O)c4ccccc4C2=O)C(=O)c2ccccc2C3=O)C(=O)c2ccccc21`, the T/C [13] is reported as 97 % of control and the T/C [14] is reported as 99 % of control.
For `CCCCCCCCCCCCN(CCCCCCCCCCCC)CC(O)c1cc2c(c3ccccc13)CCCC2` (stereo not given), the T/C [12] was 101 % of control, the T/C (dose: 100.0 mg/kg/injection, schedule: Q01DX005 (ip), vehicle: saline with Tween-80) was 97 % of control and the T/C (dose: 200.0 mg/kg/injection, schedule: Q01DX005 (ip), vehicle: saline with Tween-80) was 101 % of control.
With `Nc1ccc(C(O)(C(F)(F)F)C(F)(F)F)c(C(=O)O)c1` the T/C (dose: 100.0 mg/kg/injection, schedule: Q04DX003 (ip), vehicle: other) was 104 % of control, the T/C (dose: 200.0 mg/kg/injection, schedule: Q04DX003 (ip), vehicle: other) was 100 % of control and the T/C (dose: 400.0 mg/kg/injection, schedule: Q04DX003 (ip), vehicle: other) was 109 % of control.
In the case of `O=C(Nc1ccc(O)c(C(=O)O)c1)Oc1ccc([N+](=O)[O-])cc1`, the T/C [4] is reported as 102 % of control, the T/C [5] is reported as 107 % of control and the T/C [6] is reported as 94 % of control.
With `CCCCCCCC(=O)Nc1cc(C)ccc1C` the T/C [15] was 100 % of control, the T/C [16] was 86 % of control and the T/C [17] was 90 % of control.
For `COc1ccc(C(=O)CC(C(=O)O)c2ccc3c(c2)OCO3)cc1OC` (stereo not given), the T/C [15] was 100 % of control, the T/C [16] was 90 % of control and the T/C [17] was 90 % of control.
With `O=c1oc(-c2cccc(C[n+]3ccccc3)c2)nc2cc(Cl)ccc12` the T/C (dose: 15.0 mg/kg/injection, schedule: Q01DX005 (ip), vehicle: saline) was 98 % of control, the T/C (dose: 30.0 mg/kg/injection, schedule: Q01DX005 (ip), vehicle: saline) was 100 % of control and the T/C (dose: 60.0 mg/kg/injection, schedule: Q01DX005 (ip), vehicle: saline) was 102 % of control and 110 % of control.
`CC(C)CC(Br)C(=O)NCC(=O)O` (stereo not given) was tested, and the T/C [15] was 104 % of control, the T/C [16] was 100 % of control and the T/C [17] was 104 % of control.

— PubChem BioAssay AID330 (DTP/NCI, 2004)
